According to patent publication US6898455B2, “Method for providing optimal drug dosage” (The McLean Hospital Corporation, priority 1999, dated 2005):

Legend:
[1] = tested on: regional brain metabolism; settings: cited from earlier work; for effect of chronic treatment on regional brain metabolism (PET): adult ADHD patients, Matochik et al. 1994
adult ADHD subjects = settings: i.v., Ernst et al. 1998; cited from earlier work
[2] = tested on: caudate or thalamus of children with ADHD; test: T2 relaxometry of caudate and thalamus, blinded placebo-controlled daily treatment; assay type: in vivo, human
From the text: (§1) With this particular arrangement, an apparatus for indirectly assessing blood volume in the striatum (caudate and putamen and cerebellum) under steady-state conditions and for non-invasively diagnosing ADHD is provided. […] In one study eleven boys with ADHD had higher T2 relaxation times than six non-ADHD boys. The probability of this occurring by chance is 0.8%. The relaxation times correlated with the child's capacity to sit still, and their accuracy in performing a computerized attention task. Product-moment correlation coefficients (denoted r) for each of the above activities as well as with a probability of finding this occurrence by chance (denoted p) were computed using conventional techniques. […] It was discovered that ADHD symptoms may be closely tied to functional abnormalities in the putamen and cerebellum which are predominantly involved in the regulation and coordination of motoric behavior. […]
(§2) Turning now to FIG. 2, processing begins in steps 40 and 42 in which after positioning subjects to be tested (e.g. children or other persons possibly having brain dysfunction) in a scanning region of an MRI system of the type described above in conjunction with FIG. 1, and instructing the subjects to remain as still as possible, images of particular regions of interest (ROI) are acquired by perturbing the magnetic field in the subject and taking readings at particular times. […]

[3] = tested on: cerebellum of the most hyperactive ADHD boys; test: T2 relaxometry of the cerebellum, blinded placebo-controlled daily treatment (summary study); assay type: in vivo, human; settings: eight of the most hyperactive boys; F3,21=5.011, p=0.0089
From the text: With this particular arrangement, an apparatus for indirectly assessing blood volume in the striatum (caudate and putamen and cerebellum) under steady-state conditions and for non-invasively diagnosing ADHD is provided. […] In one study eleven boys with ADHD had higher T2 relaxation times than six non-ADHD boys. The probability of this occurring by chance is 0.8%. The relaxation times correlated with the child's capacity to sit still, and their accuracy in performing a computerized attention task. Product-moment correlation coefficients (denoted r) for each of the above activities as well as with a probability of finding this occurrence by chance (denoted p) were computed using conventional techniques. […] It was discovered that ADHD symptoms may be closely tied to functional abnormalities in the putamen and cerebellum which are predominantly involved in the regulation and coordination of motoric behavior. […] It should also be appreciated that the apparatus and technique of the present invention may be equally applied to other brain regions (or even other organs) and may be useful for diagnosing conditions other than ADHD.
Referring now to FIG. 5, a T2 relaxation time image of the brain and cerebellum is shown. Circumscribed ROIs are illustrated for the cerebellar vermis V as well as, right R and left L cerebellar hemispheres. […]

[4] = tested on: putamen of children with ADHD; settings: stated as known; cited from earlier work
[5] = tested on: cerebellar hemispheres of boys with ADHD; test: T2 relaxometry (fMRI) of the cerebellar hemispheres after one week of daily treatment; assay type: in vivo, human; settings: Dose F=0.88, p>0.4; Dose x Activity F=0.47, p>0.7
Description: (§3) In one particular embodiment, T2 relaxometry was used to indirectly assess blood volume in the cerebellum (hemispheres and midline vermis) of ten ADHD boys treated continuously for one week with placebo and three different doses of MPH. […] Following each week of treatment, and within 1-3 hours of their afternoon dose, testing for drug efficacy was performed using objective measures of activity.
Ten boys with ADHD (9.3±1.6 yr), and six healthy comparison subject boys (10.2±1.5 yr) were studied. Children with ADHD were screened using structured diagnostic interview (the Schedule for Affective Disorders and Schizophrenia for School-Age Children—Epidemiologic Version, “K-SADS-E”) and included if they met criteria for ADHD, and had at least 6 of 9 symptoms of inattention or hyperactivity-impulsivity. […]
On test days, parents were instructed to give the afternoon dose 1 hour prior to their MRI appointment. Medication administration was assessed at each visit to insure that time between ingestion and testing were held constant for each subject throughout the study. […]
Values of T2 (x, y) and S (TE=0, x, y) were then calculated on a pixel-wise basis, assuming exponential decay, i.e. 1n [S (x, y, n)]=1n [S (TE=0), x, y]−TE (n)/T2 (x, y) where (x, y) describe the location of the pixel; n characterizes the echo number, from 1 to 32; and S is the image signal intensity. […]

[6] = tested on: cerebellar vermis of boys with ADHD; test: T2 relaxometry (fMRI) of the cerebellar vermis after one week of daily treatment; assay type: in vivo, human; settings: for decrease in vermal T2-RT relative to placebo (average): three least active boys with ADHD
Description: as §3
Ten boys with ADHD (9.3±1.6 yr), and six healthy comparison subject boys (10.2±1.5 yr) were studied. Children with ADHD were screened using structured diagnostic interview (the Schedule for Affective Disorders and Schizophrenia for School-Age Children—Epidemiologic Version, “K-SADS-E”) and included if they met criteria for ADHD, and had at least 6 of 9 symptoms of inattention or hyperactivity-impulsivity. Children then took part in a triple blind (parent, child, rater), randomized, placebo-controlled study on the effects of methylphenidate (0, 0.5, 0.8, 1.5 mg/kg/day in two divided doses) on activity and fMRI. Children were treated continuously for one week with placebo or specific dose of methylphenidate. They were tested on day seven for drug response using objective measures of activity immediately following fMRI.
On test days, parents were instructed to give the afternoon dose 1 hour prior to their MRI appointment. Medication administration was assessed at each visit to insure that time between ingestion and testing were held constant for each subject throughout the study.
During each examination, 3 categories of images were obtained: (1) Scout images (typically T1-weighted sagittal images); (2) High resolution T1 matched axial images through the ten planes for which maps of T2 were generated; and (3) 32 spin echo, echoplanar image sets, with TE incremented by 4 msec in each consecutive image set (e.g. TE (1)=32 msec, TE (2)=36 msec, . . . TE (32)=156 msec) through the same ten axial planes ([…], Slice thickness=7 mm with a 3 mm skip, in-plane resolution=3.125 mm×3.125 mm, FOV=200 mm). The 32 TE-stepped images were then transferred to an off-line workstation and corrected for in plane motion using a modification of the DART image registration algorithm.
Values of T2 (x, y) and S (TE=0, x, y) were then calculated on a pixel-wise basis, assuming exponential decay, i.e. 1n [S (x, y, n)]=1n [S (TE=0), x, y]−TE (n)/T2 (x, y) where (x, y) describe the location of the pixel; n characterizes the echo number, from 1 to 32; and S is the image signal intensity. Linear least-squares regression was used to calculate a single T2 relaxation time measure for each pixel (x, y). Calculations of regional T2 relaxation time were made for regions of interest (ROI) drawn manually under the guidance of conventional T1-wighted matched MRI images in 2 to 4 slices through the cerebellum using anatomic boundaries observed in T1-weighted, preliminary T2-RT maps, and an atlas of the cerebellum. ROI slice selections were based on an assessment of the presence of cerebral spinal fluid in order to minimize partial volume artifacts, which result in abnormally elevated T2 relaxation times (values>100 msec were rejected). Sixteen voxel ROI's in the vermis were conservatively limited to square regions ([…]), to avoid encroaching into ventricular space and to provide consistency between slices and subjects.
FIGS. 7A and 7B show representative cerebellar ROIs including the vermis V and the left and right cerebella C. Delineation of regions and analysis of imaging data were performed on coded images, by an analyst very familiar with cerebellar anatomy who was blind to the identity, diagnosis, and treatment condition of the subject.

[7] = tested on: putamen of children with ADHD; test: T2 relaxometry of the putamen, blinded placebo-controlled daily treatment; assay type: in vivo, human; settings: p=0.006
From the text: as §1, §2

## C[C@H](N)Cc1ccccc1 [dextroamphetamine]
[1]
  effect of chronic treatment on regional brain metabolism (PET): no consistent effect
[1]; i.v., adult ADHD subjects, Ernst et al. 1998
  effect on global or regional metabolic rates: no consistent effect
Adult ADHD subjects
  effect on attention: robust effects on attention

## COC(=O)C(c1ccccc1)C1CCCCN1 (stereo not drawn) [methylphenidate]
[2]
  change of relaxation times in caudate or thalamus: nor did relaxation times in these regions change
[3]
  effect on relaxation times in the cerebellum: dose-dependently altered
[4]
  effect of daily high-dose treatment on T2-RT in the putamen: changed T2-RT in the putamen
[5]
  effect of treatment on T2-RT in the adjacent cerebellar hemispheres: No effect
[6]; high dose (1.5 mg/kg/day, one week), seven hyperactive ADHD boys
  increase in vermal T2-RT relative to placebo: 5.1%
[6]; high dose (1.5 mg/kg/day, one week)
  decrease in vermal T2-RT relative to placebo (average): 3.9%
[6]; high dose, F=15.98, df=1, 8, p=0.004
  group effect (hyperactive vs non-hyperactive boys) on percent change in vermis T2-RT: significant group effect
[6]; highest dose, hyperactive subjects, 95% CI in brackets
  effect size (Cohen d) of the medication-induced change in T2-RT: 2.13 (95% CI, 0.82-3.44)
[6]; increase in the most active ADHD children, reduction in those not objectively hyperactive
  effect of moderate and high doses on T2-RT (direction by basal activity): increased T2-RT in a rate-dependent manner
[6]; intermediate dose (0.8 mg/kg/day, one week), seven hyperactive ADHD boys
  increase in vermal T2-RT relative to placebo: 2.1%
[6]; intermediate dose (0.8 mg/kg/day, one week)
  decrease in vermal T2-RT relative to placebo (average): 3.5%
[6]; intermediate dose, F=6.75, df=1, 8, p=0.04
  group effect (hyperactive vs non-hyperactive boys) on percent change in vermis T2-RT: significant group effect
[6]; low dose (0.5 mg/kg/day, one week), seven boys at least 20% more active than the most active comparison subject
  increase in vermal T2-RT relative to placebo: 1.2%
[6]; low dose (0.5 mg/kg/day, one week)
  decrease in vermal T2-RT relative to placebo (average): 1.3%
[6]; low dose, F=0.63, df=1, 8, p=0.63
  group effect (hyperactive vs non-hyperactive boys) on percent change in vermis T2-RT: non-significant group effect
[6]; ten ADHD boys, F=1.167, df=3, 27, p=0.34
  effect of dose on cerebellar or vermal T2-RT, repeated-measures ANOVA without covariate: failed to reveal any significant effect of dose
[6]; ten ADHD boys, F=4.85, df=3, 24, p=0.009, effect of dose linear
  effect of treatment on vermal T2-RT, analysis of covariance with motor activity: robust effect
[1]
  effect of chronic treatment on regional brain metabolism (PET): no consistent effect
[1]; subjects with high availability of DA D2 receptors, Volkow et al. 1997
  effect on frontotemporal metabolism: increased frontotemporal metabolism
[1]; subjects with low availability of D2 receptors, Volkow et al. 1997
  effect on metabolism: decreased metabolism
[7]
  effect on relaxation times in the putamen: significantly altered
